Measurements published in ChEMBL document CHEMBL1147308, “Novel secoiridoid lactones from Jasminum multiflorum” (1989).
The source made the active and inactive calls. The calls are words filed in the database; no cut-off is given here.

What was measured:
[1] = system: Heart; experiment: Cardiotropic activity in perfused guinea pig heart assessed as minimum effective concentration; assay type: functional, Cavia porcellus
[2] = system: Heart; experiment: Cardiotropic activity in perfused guinea pig heart assessed as negative ionotropy; assay type: functional, tissue-based; settings: Cavia porcellus
[3] = system: Heart; experiment: Coronary dilatory activity in perfused guinea pig heart assessed as minimum effective concentration; assay type: functional, Cavia porcellus
[4] = system: Heart; experiment: Cardiotropic activity in perfused guinea pig heart assessed as negative chronotropy; assay type: functional, tissue-based; settings: Cavia porcellus
[5] = system: Heart; experiment: Cardiotropic activity in perfused guinea pig heart assessed as positive ionotropy; assay type: functional, tissue-based; settings: Cavia porcellus
[6] = system: Heart; experiment: Cardiotropic activity in perfused guinea pig heart assessed as positive chronotropy; assay type: functional, tissue-based; settings: Cavia porcellus

Compound | MEC [1] | Activity [2] | MEC [3] | Activity [4] | Activity [5] | Activity [6]
COC(=O)C1=CO[C@@H](O)[C@H]2[C@@H]1CC(=O)OC[C@H]2OCCc1ccc(O)c(O)c1 [JASMOLACTONE A] | 2.5 ×10⁻⁵ M | Active | 1.3 ×10⁻⁵ M | inactive | – | –
O=C1C[C@@H]2C(C(=O)OCCc3ccc(O)c(O)c3)=CO[C@@H](O)[C@@H]2[C@H](OCCc2ccc(O)c(O)c2)CO1 [JASMOLACTONE B] | 9.7 ×10⁻⁶ M | Active | 4.8 ×10⁻⁶ M | inactive | – | –
CC(C)NCC(O)c1ccc(O)c(O)c1 (configuration not stated) [ISOPROTERENOL] | 4.7 ×10⁻⁸ M | – | 4.7 ×10⁻⁷ M | – | Active | Active
